What is called IC50 is the concentration at which inhibition is half-maximal.

The values below come from patent US12065436B2, “Cardiac sarcomere inhibitors” (Cytokinetics, Inc., priority 2018, dated 2024).

This assay has as its target bovine cardiac myofibrils (full-length cardiac myosin ATPase in the native sarcomere) (Bos taurus (Bovine), UniProt Q9BE39). Put plainly: Skinned bovine cardiac myofibril ATPase assay (PK/LDH-coupled). In kind it is biochemical. The conditions noted are these: Ca2+ activating to 75% of maximal rate; for CDMF75 IC15: concentration giving 15% inhibition; for IC50: read-out: CDMF75 IC50. The procedure, abridged:
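Triton-skinned bovine left-ventricle myofibrils (1 mg/mL) in PM 12 buffer (12 mM PIPES, 2 mM MgCl2, pH 6.8) with 50 μM ATP, 0.6 mM EGTA and CaCl2 set for 50% or 75% activation. Steady-state ATPase inhibition followed by PK/LDH-coupled NADH oxidation at 340 nm.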

Structures are written as SMILES. Some results are limits rather than exact numbers.

bovine cardiac myofibrils (full-length cardiac myosin ATPase in the native sarcomere), sequence (Q9BE39 whole entry): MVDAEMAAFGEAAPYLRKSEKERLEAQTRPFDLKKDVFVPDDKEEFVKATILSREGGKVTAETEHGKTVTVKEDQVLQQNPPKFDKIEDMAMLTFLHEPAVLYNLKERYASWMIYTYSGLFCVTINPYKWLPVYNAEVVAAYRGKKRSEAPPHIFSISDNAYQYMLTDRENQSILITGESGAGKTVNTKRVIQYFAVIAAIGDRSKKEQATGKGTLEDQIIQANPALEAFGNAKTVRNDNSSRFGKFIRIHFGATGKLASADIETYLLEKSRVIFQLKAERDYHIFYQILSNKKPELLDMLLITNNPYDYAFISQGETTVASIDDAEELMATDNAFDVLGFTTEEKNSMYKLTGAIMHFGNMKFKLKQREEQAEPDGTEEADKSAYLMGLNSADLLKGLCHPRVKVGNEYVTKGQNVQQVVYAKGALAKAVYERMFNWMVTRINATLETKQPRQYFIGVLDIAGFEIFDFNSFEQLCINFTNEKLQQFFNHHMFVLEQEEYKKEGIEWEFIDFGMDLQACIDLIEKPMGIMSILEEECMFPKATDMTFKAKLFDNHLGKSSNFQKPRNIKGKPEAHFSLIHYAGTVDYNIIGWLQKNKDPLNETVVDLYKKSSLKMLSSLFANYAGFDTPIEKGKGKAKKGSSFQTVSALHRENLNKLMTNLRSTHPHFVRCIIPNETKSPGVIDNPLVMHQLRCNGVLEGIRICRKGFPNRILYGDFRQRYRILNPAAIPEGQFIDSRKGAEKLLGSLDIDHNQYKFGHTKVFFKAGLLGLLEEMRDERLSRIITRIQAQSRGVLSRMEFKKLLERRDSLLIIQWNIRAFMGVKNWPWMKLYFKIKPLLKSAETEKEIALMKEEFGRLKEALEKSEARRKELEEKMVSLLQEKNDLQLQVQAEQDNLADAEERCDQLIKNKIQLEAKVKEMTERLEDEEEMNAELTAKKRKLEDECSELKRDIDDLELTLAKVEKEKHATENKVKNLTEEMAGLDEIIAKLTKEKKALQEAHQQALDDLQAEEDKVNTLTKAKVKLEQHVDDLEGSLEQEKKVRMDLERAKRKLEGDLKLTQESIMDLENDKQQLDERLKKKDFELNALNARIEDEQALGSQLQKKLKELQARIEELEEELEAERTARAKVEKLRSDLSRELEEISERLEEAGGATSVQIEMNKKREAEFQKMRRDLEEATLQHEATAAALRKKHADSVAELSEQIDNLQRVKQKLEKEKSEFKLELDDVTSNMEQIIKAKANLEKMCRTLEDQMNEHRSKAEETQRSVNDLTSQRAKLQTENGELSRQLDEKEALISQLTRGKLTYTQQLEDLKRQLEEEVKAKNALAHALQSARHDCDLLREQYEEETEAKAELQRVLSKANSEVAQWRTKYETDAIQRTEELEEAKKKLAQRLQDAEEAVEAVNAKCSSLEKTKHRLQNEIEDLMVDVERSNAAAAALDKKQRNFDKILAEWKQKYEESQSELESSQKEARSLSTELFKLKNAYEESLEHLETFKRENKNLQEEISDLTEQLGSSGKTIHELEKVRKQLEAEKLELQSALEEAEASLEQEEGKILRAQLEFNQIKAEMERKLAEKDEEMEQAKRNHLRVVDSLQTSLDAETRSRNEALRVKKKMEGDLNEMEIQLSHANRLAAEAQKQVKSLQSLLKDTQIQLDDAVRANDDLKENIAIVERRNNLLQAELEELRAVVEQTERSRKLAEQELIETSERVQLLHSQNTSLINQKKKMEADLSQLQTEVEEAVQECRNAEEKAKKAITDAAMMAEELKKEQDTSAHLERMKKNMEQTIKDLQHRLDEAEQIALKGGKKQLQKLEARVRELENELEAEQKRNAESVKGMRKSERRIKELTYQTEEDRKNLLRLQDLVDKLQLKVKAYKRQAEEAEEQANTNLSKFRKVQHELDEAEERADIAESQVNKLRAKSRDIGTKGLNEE
bovine cardiac myofibrils (full-length cardiac myosin ATPase in the native sarcomere), sequence (P85100 whole entry partner): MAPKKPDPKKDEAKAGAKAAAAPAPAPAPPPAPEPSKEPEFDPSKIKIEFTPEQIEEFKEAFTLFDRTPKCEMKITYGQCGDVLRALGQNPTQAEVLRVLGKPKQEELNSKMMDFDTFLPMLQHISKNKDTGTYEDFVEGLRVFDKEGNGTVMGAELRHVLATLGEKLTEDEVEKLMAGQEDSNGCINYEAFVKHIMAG
bovine cardiac myofibrils (full-length cardiac myosin ATPase in the native sarcomere), sequence (Q3SZE5 whole entry partner): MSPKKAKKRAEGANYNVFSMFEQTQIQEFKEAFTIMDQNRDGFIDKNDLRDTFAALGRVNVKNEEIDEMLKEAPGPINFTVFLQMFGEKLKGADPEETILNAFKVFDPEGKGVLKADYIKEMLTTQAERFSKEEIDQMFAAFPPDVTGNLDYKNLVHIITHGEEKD

As to `Cc1nc(-c2ccc3c(c2)CCC3NC(=O)c2ccnc(O)c2)no1` (centres unmarked) [Compound 43, 2-hydroxy-N-(5-(5-methyl-1,2,4-oxadiazol-3-yl)-2,3-dihydro-1H-inden-1-yl)isonicotinamide], the “CDMF75 IC15” value was 4.3 µM and the IC50 came to 14.1 µM.
With `CCc1cc(-c2ccc3c(c2)CC[C@H]3NC(=O)c2cnc(C)o2)no1` [Compound 415, (R)-N-(5-(5-ethylisoxazol-3-yl)-2,3-dihydro-1H-inden-1-yl)-2-methyloxazole-5-carboxamide], the “CDMF75 IC15” value came out at 0.5 µM and the IC50 was 1.7 µM.
`[2H]C([2H])([2H])c1nc(-c2ccc3c(c2)CC[C@H]3NC(=O)c2ccc(=O)n(C)c2)no1` [Compound 646, (R)-1-methyl-N-(5-(5-(methyl-d3)-1,2,4-oxadiazol-3-yl)-2,3-dihydro-1H-inden-1-yl)-6-oxo-1,6-dihydropyridine-3-carboxamide]: the “CDMF75 IC15” value is 2.2 µM and the IC50 was determined as 9 µM.
As to `Cc1cc(C(=O)N[C@@H]2CCc3cc(-c4noc(C(C)C)n4)ccc32)ccn1` [Compound 392, (R)-N-(5-(5-isopropyl-1,2,4-oxadiazol-3-yl)-2,3-dihydro-1H-inden-1-yl)-2-methylisonicotinamide], the “CDMF75 IC15” value was 0.9 µM and the concentration for half-maximal inhibition (IC50) was 2.7 µM.
The corresponding values for `CCc1nc(-c2ccc3c(c2)CC[C@H]3NC(=O)c2cccnc2)no1` [Compound 624, (R)-N-(5-(5-ethyl-1,2,4-oxadiazol-3-yl)-2,3-dihydro-1H-inden-1-yl)nicotinamide] are 0.4 µM and 1.5 µM.
For `O=C1C[C@@H](C(=O)N[C@@H]2CCc3cc(-c4noc(C5CC5)n4)ccc32)N1` [Compound 316, (S)-N-((R)-5-(5-cyclopropyl-1,2,4-oxadiazol-3-yl)-2,3-dihydro-1H-inden-1-yl)-4-oxoazetidine-2-carboxamide], the “CDMF75 IC15” value was 15.6 µM and the IC50 is above 39.2 µM.
The corresponding values for `CCc1nc(-c2ccc3c(c2)CC[C@H]3NC(=O)c2cnn(CCO)c2C)no1` [Compound 572, (R)-N-(5-(5-ethyl-1,2,4-oxadiazol-3-yl)-2,3-dihydro-1H-inden-1-yl)-1-(2-hydroxyethyl)-5-methyl-1H-pyrazole-4-carboxamide] are 0.5 µM and 1.8 µM.
The corresponding values for `CCc1nc(-c2ccc3c(c2)CC[C@H]3NC(=O)c2cc(C(C)=O)ccn2)no1` [Compound 720, (R)-4-acetyl-N-(5-(5-ethyl-1,2,4-oxadiazol-3-yl)-2,3-dihydro-1H-inden-1-yl)picolinamide] are 2.3 µM and 10.4 µM.
The corresponding values for `Cc1cc(C(=O)N[C@@H]2COc3cc(-c4noc(C)n4)ccc32)on1` [Compound 346, (S)-3-methyl-N-(6-(5-methyl-1,2,4-oxadiazol-3-yl)-2,3-dihydrobenzofuran-3-yl)isoxazole-5-carboxamide] are 0.9 µM and 3.2 µM.
In the case of `Cc1nc(-c2ccc3c(c2)CCC3NC(=O)c2nnn(C)n2)no1` (centres unmarked) [Compound 64, 2-methyl-N-(5-(5-methyl-1,2,4-oxadiazol-3-yl)-2,3-dihydro-1H-inden-1-yl)-2H-tetrazole-5-carboxamide], the “CDMF75 IC15” value turned out to be 1.2 µM and the 50% inhibitory concentration (IC50) is 5.1 µM.
Take `O=C(NC1CCCC1)N[C@@H]1CCc2cc(-c3noc(C(F)F)n3)ccc21` [Compound 298, (R)-1-cyclopentyl-3-(5-(5-(difluoromethyl)-1,2,4-oxadiazol-3-yl)-2,3-dihydro-1H-inden-1-yl)urea]: the “CDMF75 IC15” value came out at 39.2 µM and the 50% inhibitory concentration (IC50) was above 39.2 µM.
As to `Cc1cc(C(=O)N[C@@H]2CCc3cc(-c4coc(C)n4)ccc32)ccn1` [Compound 146, (R)-2-methyl-N-(5-(2-methyloxazol-4-yl)-2,3-dihydro-1H-inden-1-yl)isonicotinamide], the “CDMF75 IC15” value was 21.2 µM and the IC50 was above 39.2 µM.
For the compound `CC(=O)O[C@@H](C)c1nc(-c2ccc3c(c2)CC[C@H]3NC(=O)c2cnn(C)c2)no1` [Compound 543, 1-(3-{(1R)-1-[(1-methylpyrazol-4-yl)carbonylamino]indan-5-yl}(1,2,4-oxadiazol-5-yl))(1S)ethyl acetate], the “CDMF75 IC15” value worked out at 4.6 µM and the IC50 is 17.3 µM.
On to `[2H]C([2H])([2H])c1nc(-c2ccc3c(c2)CC[C@H]3NC(C)=O)no1` [Compound 408, (R)-N-(5-(5-(methyl-d3)-1,2,4-oxadiazol-3-yl)-2,3-dihydro-1H-inden-1-yl)acetamide], for which the “CDMF75 IC15” value came out at 2.8 µM and the concentration for half-maximal inhibition (IC50) is 12.8 µM.
Turning to `Cn1cc(C(=O)NC2CCc3cc(-c4noc(C(F)F)n4)ccc32)c(C(F)(F)F)n1` (centres unmarked) [Compound 40, N-(5-(5-(difluoromethyl)-1,2,4-oxadiazol-3-yl)-2,3-dihydro-1H-inden-1-yl)-1-methyl-3-(trifluoromethyl)-1H-pyrazole-4-carboxamide], the “CDMF75 IC15” value was determined as 3.9 µM and the 50% inhibitory concentration (IC50) stood at 16.2 µM.
In the case of `O=C(N[C@@H]1CCc2cc(-c3noc(C4CC4)n3)ccc21)OCC1CC1` [Compound 326, cyclopropylmethyl (R)-(5-(5-cyclopropyl-1,2,4-oxadiazol-3-yl)-2,3-dihydro-1H-inden-1-yl)carbamate], the “CDMF75 IC15” value is 0.6 µM and the IC50 was found to be 2.4 µM.
In the case of `COCc1nc(-c2ccc3c(c2)OCC3NC(=O)c2cc(C)nn2C)no1` (centres unmarked) [Compound 226, N-(6-(5-(methoxymethyl)-1,2,4-oxadiazol-3-yl)-2,3-dihydrobenzofuran-3-yl)-1,3-dimethyl-1H-pyrazole-5-carboxamide], the “CDMF75 IC15” value was found to be 1.2 µM and the half-maximal inhibitory concentration (IC50) came out at 4 µM.
Regarding `Cc1nc(-c2ccc3c(c2)CCC3NC(=O)c2ccnc(N)c2)no1` (centres unmarked) [Compound 33, 2-amino-N-(5-(5-methyl-1,2,4-oxadiazol-3-yl)-2,3-dihydro-1H-inden-1-yl)isonicotinamide], the “CDMF75 IC15” value is 1.3 µM and the half-maximal inhibitory concentration (IC50) was determined as 4.3 µM.
Turning to `Cn1nccc1C(=O)N[C@@H]1CCc2cc(-c3noc(C4CC4(C)C)n3)ccc21` (stereo partly drawn) [Compound 460, N-((1R)-5-(5-(2,2-dimethylcyclopropyl)-1,2,4-oxadiazol-3-yl)-2,3-dihydro-1H-inden-1-yl)-1-methyl-1H-pyrazole-5-carboxamide], the “CDMF75 IC15” value was found to be 1.3 µM and the IC50 stood at 5.5 µM.
Turning to `CCOCCn1cc(C(=O)N[C@@H]2CCc3cc(-c4noc(CC)n4)ccc32)cn1` [Compound 573, (R)-1-(2-ethoxyethyl)-N-(5-(5-ethyl-1,2,4-oxadiazol-3-yl)-2,3-dihydro-1H-inden-1-yl)-1H-pyrazole-4-carboxamide], the “CDMF75 IC15” value turned out to be 0.9 µM and the IC50 came to 4.1 µM.
`COCc1nc(-c2ccc3c(c2)CC[C@H]3NC(=O)c2cccc(CO)c2)no1` [Compound 669, (R)-3-(hydroxymethyl)-N-(5-(5-(methoxymethyl)-1,2,4-oxadiazol-3-yl)-2,3-dihydro-1H-inden-1-yl)benzamide]: the “CDMF75 IC15” value was determined as 0.5 µM and the IC50 is 2.3 µM.
For `CCc1nc(-c2ccc3c(c2)CC[C@H]3NC(=O)c2cc(O)no2)no1` [Compound 634, (R)-N-(5-(5-ethyl-1,2,4-oxadiazol-3-yl)-2,3-dihydro-1H-inden-1-yl)-3-hydroxyisoxazole-5-carboxamide], the “CDMF75 IC15” value worked out at 0.5 µM and the half-inhibitory concentration (IC50) was determined as 2.1 µM.
